In US20260306464A1, “LINAPRAZAN GLURATE FOR TREATING GASTROESOPHAGEAL REFLUX DISEASE (GERD)” (Cinclus Pharma Holding AB (publ), priority 2023, published 2026):

Columns and labels:
[1] = background statement; cited from earlier work
[2] = test system: intragastric pH; experiment: 48-hour intragastric pH-metry, Phase 1 exploratory dose-finding study in healthy subjects; format: in vivo, human; conditions: for Hours with pH >4 (Mean (SD)) / Hours with pH >4 (Median (min, max)) / Percentage of time with pH >4 (Mean) / Percentage of time with pH >4 (Median (min, max)): healthy subjects
Description: The study was a single-centre, open-label, parallel-group, randomised exploratory dose-finding study designed to evaluate the PK, PD, safety and tolerability of repeated oral doses of linaprazan glurate (LG) at 3 dose levels, in healthy male and female subjects. About 36 subjects were randomised for an estimated total of 12 evaluable subjects per treatment arm.
Subjects came to the clinic for 3 visits. The screening (Visit 1) took place from Day −28 to Day −1 and included an eligibility check and review of health status. At Visit 2, subjects were admitted to the clinic on Day −1 and remained at the clinic until Day 4 for repeated dose of LG administration and safety, PK and PD assessments. The subjects fasted for at least 8 hours before the anticipated dosing time on Day 1. Water, but no other drinks, was allowed as desired except for 1 hour before and 30 minutes after dosing. In the morning of Day 1, subjects were randomised to one of 3 treatment arms: • LG 50 mg BID for 3 days (5 doses, last dose in the morning of Day 3) • LG 100 mg (2×50 mg) BID for 3 days (5 doses, last dose in the morning of Day 3) • LG 150 mg (3×50 mg) BID for 3 days (5 doses, last dose in the morning of Day 3)
Subjects were carefully monitored by clinical staff during and after dosing. […] The pH-metry assessment was started prior to Dose 3 (in the morning of Day 2) and continued for 48 hours, until 24 hours post last dose. Vital signs and ECG were checked at regular intervals and PK sampling was done at selected timepoints. A final end-of-study visit (Visit 3) took place on Day 7 (±2) or after early withdrawal. Each subject was expected to participate in the study for approximately 7 days from the day of randomisation (Day 1, Visit 2) to the End-of Study Visit. The Screening Visit was performed within 28 days prior to randomisation (Day −28 to Day −1).

[3] = LEED study: endoscopic healing of erosive esophagitis / LA grade improvement after 4 weeks; format: in vivo, human
Description: The severity of esophagitis is typically indicated using the Los Angeles (LA) classification of reflux esophagitis, which is based on an endoscopic assessment of the patient. The LA grade scoring system divides reflux esophagitis into four categories (LA grade A to D) based on the extent of esophageal mucosal breaks. […] LA grade C esophagitis is defined as one or more mucosal breaks that are continuous between the tops of two mucosal folds, but which involves less than 75% of the esophageal circumference. The most severe form, LA grade D esophagitis, is defined as one or more mucosal breaks involving at least 75% of the esophageal circumference (Lundell et al., Gut 1999, vol. 45, p. 172-180).
As used herein, the terms “improvement of the LA grade” and “LA grade improvement” refer to one or more steps from one LA grade to a lower LA grade (such as from grade D to grade C, B or A) or to being healed. In some embodiments, the improvement of the LA grade is 1 step. In some embodiments, the improvement of the LA grade is 2 steps. In some embodiments, the improvement of the LA grade is 3 steps. In some embodiments, the improvement of the LA grade is 4 steps.
The study included patients with erosive esophagitis (eGERD). Patients were divided into two cohorts, one with patients having moderate to severe eGERD (LA grade C/D) and one with patients having milder eGERD (LA grade A/B) with a history of only partial response to PPI-treatment. The primary endpoint of the study was to support dose selection of linaprazan glurate for the phase III program in eGERD, through central assessment of healing of erosive esophagitis after four weeks of treatment. The sample size, i.e., the number of patients needed, for measuring dose related efficacy was based on the patient cohort with moderate to severe eGERD. After initial endoscopy and other screening procedures, 248 patients were randomized equally into one of five treatment groups, receiving either four weeks treatment with linaprazan glurate in four dose levels, or four weeks lansoprazole in the approved standard eGERD healing dose. Thereafter, an endoscopic evaluation of healing was performed, where healing was defined as no presence of esophageal erosions, i.e., no erosive damage to the esophageal mucosa. After the endoscopic evaluation, all patient groups received lansoprazole for four weeks in a maintenance phase. A retrospective central review of the endoscopy findings was performed, and 162 patients were available for evaluation of the primary endpoint. All enrolled 248 patients were included in the safety analysis.
The study was a randomized, double-blind, active comparator-controlled study with a parallel group design including four arms with linaprazan glurate and one arm with lansoprazole. Pharmacokinetic (PK) blood sampling pre-dose, close before the first and the second dose administration was performed at Day 7, Day 14 and Day 28 visits days in all patients. 248 patients with erosive esophagitis due to GERD LA grade C or D and patients with erosive esophagitis due to GERD LA grade A or B with at least partial symptom response but still endoscopically unhealed after 8 weeks history of standard treatment healing course with PPI, were randomized.
Randomization to one of the treatments with linaprazan glurate 25 mg, 50 mg, 75 mg, 100 mg twice daily (BID), or lansoprazole 30 mg once daily (QD) was based on a 1:1:1:1:1 scheme. One site could not enroll more than about 20% of the overall number of patients (48 patients per site).
The duration of each patient's participation in the study, including screening, blind treatment period and open-label treatment period, was approximately 60 days. The patients were randomized for 4 weeks (28 days, −2/+5 days) of double-blind treatment and were provided with IMP for 35 days (including one additional blister pack dispensed at Visit 2/Day 0) to allow for treatment up to the visit window. […]

[4] = 50 mg LG, 1 last dose in the morning (Day 3, "QD")
[5] = 50 mg LG, 2 doses (Day 2, BID), oral
[6] = 100 mg LG, 1 last dose in the morning (Day 3, "QD")
[7] = 100 mg LG, 2 doses (Day 2, BID), oral
[8] = 150 mg LG, 1 last dose in the morning (Day 3, "QD")
[9] = 150 mg LG, 2 doses (Day 2, BID), oral
[10] = 100 or 150 mg, two daily doses (Day 2) vs once daily (Day 3)
[11] = LA grade C/D, LG 100 mg BID, 4 weeks

For Cc1cccc(C)c1CNc1cc(C(=O)NCCOC(=O)CCCC(=O)O)cn2c(C)c(C)nc12 [linaprazan glurate, 5-{2-[({8-[(2,6-dimethylbenzyl)amino]-2,3-dimethylimidazo[1,2-a]pyridine-6-yl}carbonyl)-amino]ethoxy}-5-oxopentanoic acid], the plasma half-life [1] is given as “approximately 10 hours”, the “Hours with pH >4 (Mean (SD))” value [2, 4] is given as 17.04 (5.33) hours and the “Hours with pH >4 (Median (min, max))” value [2, 4] is given as 15.80 (6.8, 23.8) hours. For the same molecule, the “Percentage of time with pH >4 (Mean)” value [2, 4] was 71.15%, the “Percentage of time with pH >4 (Median (min, max))” value (“Percentage … (Median (min, max))” for short) [2, 4] was 65.90 (28.6, 99.8) % and the “Hours with pH >4 (Mean (SD))” value [2, 5] was 15.47 (4.83) hours. The “Hours with pH >4 (Median (min, max))” value [2, 5] was 15.65 (8.5, 23.8) hours, the “Percentage of time with pH >4 (Mean)” value [2, 5] was 64.48% and the “Percentage … (Median (min, max))” value [2, 5] was 65.20 (35.4, 99.1) %. The “Hours with pH >4 (Mean (SD))” value [2, 6] was 18.38 (3.84) hours, the “Hours with pH >4 (Median (min, max))” value [2, 6] was 19.30 (11.6, 23.5) hours and the “Percentage of time with pH >4 (Mean)” value [2, 6] was 76.81%. The “Percentage … (Median (min, max))” value [2, 6] was 80.50 (48.9, 97.8) %, the “Hours with pH >4 (Mean (SD))” value [2, 7] was 18.93 (4.83) hours and the “Hours with pH >4 (Median (min, max))” value [2, 7] was 21.30 (7.0, 22.8) hours. For the same molecule, the “Percentage of time with pH >4 (Mean)” value [2, 7] was 78.85%, the “Percentage … (Median (min, max))” value [2, 7] was 88.70 (29.1, 95.0) % and the “Hours with pH >4 (Mean (SD))” value [2, 8] was 20.38 (3.51) hours. For the same molecule, the “Hours with pH >4 (Median (min, max))” value [2, 8] was 21.05 (15.5, 24.0) hours, the “Percentage of time with pH >4 (Mean)” value [2, 8] was 85.14% and the “Percentage … (Median (min, max))” value [2, 8] was 88.00 (64.9, 99.8) %. The “Hours with pH >4 (Mean (SD))” value [2, 9] was 22.00 (2.60) hours, the “Hours with pH >4 (Median (min, max))” value [2, 9] was 23.05 (16.6, 24.0) hours and the “Percentage of time with pH >4 (Mean)” value [2, 9] was 91.64%. The “Percentage … (Median (min, max))” value [2, 9] was 96.05 (69.3, 99.8) %, the “additional hours with pH>4 (median), BID vs QD” value [2, 10] was “about two” and the “longer time with pH>4, BID vs QD” value [2, 10] was “about 10%”. For the same molecule, the “healing rate vs lansoprazole” value ([3]; 4-week treatment vs 30 mg/day lansoprazole) was “significantly higher healing rates”, the “dose response in the healing rates” value ([3]; 4 weeks, LG 25-100 mg BID) was “clear dose response” and the “healing rate of eGERD” value ([3]; 25, 50, 75 or 100 mg twice daily for 4 weeks) was “high healing rates”. For the same molecule, the “highest four-week healing rate in a linaprazan glurate dosing group” value ([3]; LA grade A/B, 4 weeks, BID) was 91%, the “mean healing rate, all patients treated with linaprazan glurate” value ([3]; LA grade A/B/C/D, 4 weeks, all LG doses, FIG. 8) was 80% and the “highest mean LA grade improvement in a linaprazan glurate dosing group” value ([3]; LA grade C/D, 4 weeks, BID, FIG. 5) was 3.1. For the same molecule, the “LA grade improvement of all LG-treated patients vs lansoprazole” value ([3]; LA grade C/D, 4 weeks, all LG doses) was “higher than lansoprazole”, the “highest four-week healing rate in a linaprazan glurate dosing group” value ([3]; LA grade C/D, 4 weeks, FIG. 6 (all LG dose group), FIG. 7 (LG 75 mg dose group)) was 89% and the “patients whose 4-week LA grade was A” value [3, 11] was 6 out of 7. For the same molecule, the “response in the 100 mg dose group” value [3, 11] was “lower than expected”, the “healing rate of all LG-treated patients vs lansoprazole” value ([3]; LA grade C/D, post-hoc analysis, Fisher's exact test) was “significantly higher than lansoprazole” and the “mean harmonic p-value, healing rate LG vs lansoprazole” value ([3]; LA grade C/D, post-hoc, Fisher's exact test) was 0.0404.
